# Assays:
# MRSA ATCC 43300 = test: MIC/MBC by broth dilution (CLSI); type: cell-based, Staphylococcus aureus; conditions: Staphylococcus aureus; for MIC: MRSA ATCC 43300, broth dilution, 24 h, 37 °C, read-out: MIC; for MBC: MRSA ATCC 43300, 99.9% of the bacteria killed
# Procedure: (§1) The in vitro antimicrobial activity of the pleuromutilin derivatives was assessed against MRSA ATCC 43300, S. aureus ATCC 29213, S. aureus 144 and S. aureus AD3 according to the Clinical and Laboratory Standards Institute (CLSI). Tiamulin was used as a positive control drug. The results were summarized as the minimum inhibitory concentration (MIC) and the minimum bactericidal concentration (MBC) in Table 1 and Table 2. In addition, MIC results for the pleuromutilin derivatives against four Gram-negative bacteria are supplied in Tables S2 and S3.
# (§2) The MIC and MBC values of the synthesized novel pleuromutilin derivatives against MRSA ATCC 43300, S. aureus ATCC 29213, S. aureus 144 and S. aureus AD3 were measured. Tiamulin was used as a positive control drug. The MIC and MBC values were manipulated by broth dilution according to the Clinical and Laboratory Standards (CLSI). Each compound to be measured was dissolved in a solution of 95% deionized water, 2.5% dimethyl sulfoxide (DMSO) and 2.5% Tween-80 with a concentration of 1280 µg/mL. Subsequently, serial twofold dilutions were made in a concentration range from 64 µg/mL to 0.0625 µg/mL. The working bacterial suspension was inoculated into each well, which provided the final inoculum density of 5 × 10^5 CFU/mL. Three parallel experiments were performed for each compound.
# (§3) Overall, 25 µL of the bacterial solution from the wells with no obvious bacterial growth was inoculated on MH agar plates. Then, the inoculated MH agar plates were further cultured at 37 °C for 24 h.
# S. aureus 144 = test: MIC/MBC by broth dilution (CLSI); type: cell-based; conditions: Staphylococcus aureus; S. aureus 144 (clinical strain)
# Procedure: as §1, §2, §3
# S. aureus AD3 = test: MIC/MBC by broth dilution (CLSI); type: cell-based; conditions: Staphylococcus aureus, S. aureus AD3 (clinical strain)
# Procedure: as §1, §2, §3
# S. aureus ATCC 29213 = test: MIC/MBC by broth dilution (CLSI); type: cell-based; conditions: Staphylococcus aureus; for MIC: S. aureus ATCC 29213, broth dilution, 24 h, 37 °C; for MBC: S. aureus ATCC 29213
# Procedure: as §1, §2, §3
Compound,MIC (MRSA ATCC 43300) [µg/mL],MIC (S. aureus 144) [µg/mL],MIC (S. aureus AD3) [µg/mL],MIC (S. aureus ATCC 29213; ATCC29213) [µg/mL],melting point [°C],MIC (S. aureus AD3; 24 h) [µg/mL],MBC (MRSA ATCC 43300) [µg/mL],MBC (S. aureus 144) [µg/mL],MBC (S. aureus AD3; 24 h) [µg/mL],"MBC (S. aureus ATCC 29213; ATCC29213, 24 h) [µg/mL]",MBC (S. aureus AD3) [µg/mL],MBC (S. aureus ATCC 29213; ATCC29213) [µg/mL]
"C=C[C@]1(C)C[C@@H](OC(=O)CSc2ccc(Nc3nc(Cl)nc4c3cnn4-c3ccc(F)cc3F)cc2)[C@]2(C)[C@H](C)CC[C@]3(CCC(=O)[C@H]32)[C@@H](C)[C@@H]1O [Compound 20c, 22-[4-(6-Chloro-1-(2,4-difluorophenyl)-1H-pyrazolo[3,4-d]pyrimidine-4-yl)amino-Phenylsulfanyl]-22-deoxypleuromutilin]",> 64,> 64,> 64,> 64,132 to 134,,,,,,,
"C=C[C@]1(C)C[C@@H](OC(=O)CNc2nc(Cl)nc3c2cnn3-c2cc(F)ccc2F)[C@]2(C)[C@H](C)CC[C@]3(CCC(=O)[C@H]32)[C@@H](C)[C@@H]1O [Compound 21b, 22-[(6-Chloro-1-(2,5-difluorophenyl)-1H-pyrazolo[3,4-d]pyrimidine-4-yl)amino]-22-deoxypleuromutilin]",> 64,> 64,> 64,> 64,121 to 125,,,,,,,
"C=C[C@]1(C)C[C@@H](OC(=O)CSc2ccc(Nc3nc(Cl)nc4c3cnn4-c3cc(F)ccc3F)cc2)[C@]2(C)[C@H](C)CC[C@]3(CCC(=O)[C@H]32)[C@@H](C)[C@@H]1O [Compound 21c, 22-[4-(6-Chloro-1-(2,5-difluorophenyl)-1H-pyrazolo[3,4-d]pyrimidine-4-yl)amino-Phenylsulfanyl]-22-deoxypleuromutilin]",> 64,> 64,> 64,> 64,115 to 118,,,,,,,
"C=C[C@]1(C)C[C@@H](OC(=O)CSc2ccc(Nc3nc(Cl)nc4c3cnn4-c3ccc(OC(F)(F)F)cc3)cc2)[C@]2(C)[C@H](C)CC[C@]3(CCC(=O)[C@H]32)[C@@H](C)[C@@H]1O [Compound 23c, 22-[4-(6-Chloro-1-(4-(yrifluoromethoxy)Phenyl)-1H-pyrazolo[3,4-d]pyrimidine-4-yl)amino-Phenylsulfanyl]-22-deoxypleuromutilin]",0.5,1,0.25,0.5,144 to 147,,1,2,,,1,1
"C=C[C@]1(C)C[C@@H](OC(=O)CSc2ccc(Nc3nc(Cl)nc4c3cnn4-c3cccc(Cl)c3)cc2)[C@]2(C)[C@H](C)CC[C@]3(CCC(=O)[C@H]32)[C@@H](C)[C@@H]1O [Compound 24c, 22-[4-(6-Chloro-1-(3-chlorophenyl)-1H-pyrazolo[3,4-d]pyrimidine-4-yl)amino-Phenylsulfanyl]-22-deoxypleuromutilin]",> 64,> 64,> 64,> 64,121 to 124,,,,,,,
"C=C[C@]1(C)C[C@@H](OC(=O)CSc2ccc(Nc3nc(Cl)nc4c3cnn4-c3ccc(Cl)cc3)cc2)[C@]2(C)[C@H](C)CC[C@]3(CCC(=O)[C@H]32)[C@@H](C)[C@@H]1O [Compound 25c, 22-[4-(6-Chloro-1-(4-chlorophenyl)-1H-pyrazolo[3,4-d]pyrimidine-4-yl)amino-Phenylsulfanyl]-22-deoxypleuromutilin]",8,> 64,8,16,124 to 129,,16,,,,32,> 64
"C=C[C@]1(C)C[C@@H](OC(=O)CNc2nc(Cl)nc3c2cnn3-c2cc(Cl)cc(Cl)c2)[C@]2(C)[C@H](C)CC[C@]3(CCC(=O)[C@H]32)[C@@H](C)[C@@H]1O [Compound 26b, 22-[(6-Chloro-1-(3,5-dichlorophenyl)-1H-pyrazolo[3,4-d]pyrimidine-4-yl)amino]-22-deoxypleuromutilin]",> 64,> 64,> 64,> 64,151 to 156,,,,,,,
"C=C[C@]1(C)C[C@@H](OC(=O)CSc2ccc(Nc3nc(Cl)nc4c3cnn4-c3cc(Cl)cc(Cl)c3)cc2)[C@]2(C)[C@H](C)CC[C@]3(CCC(=O)[C@H]32)[C@@H](C)[C@@H]1O [Compound 26c, 22-[4-(6-Chloro-1-(3,5-dichlorophenyl)-1H-pyrazolo[3,4-d]pyrimidine-4-yl)amino-Phenylsulfanyl]-22-deoxypleuromutilin]",> 64,> 64,> 64,> 64,137 to 139,,,,,,,
"C=C[C@]1(C)C[C@@H](OC(=O)CSc2ccc(Nc3nc(Cl)nc4c3cnn4-c3ccc4ccccc4c3)cc2)[C@]2(C)[C@H](C)CC[C@]3(CCC(=O)[C@H]32)[C@@H](C)[C@@H]1O [Compound 28c, 22-[4-(6-Chloro-1-(naphthalen-2-yl)-1H-pyrazolo[3,4-d]pyrimidine-4-yl-yl)amino-Phenylsulfanyl]-22-deoxypleuromutilin]",> 64,> 64,> 64,> 64,115 to 118,,,,,,,

# Now from value to compound, other results behind:
MIC (MRSA ATCC 43300) [µg/mL],MIC (S. aureus 144) [µg/mL],MIC (S. aureus AD3) [µg/mL],MIC (S. aureus ATCC 29213; ATCC29213) [µg/mL],melting point [°C],MIC (S. aureus AD3; 24 h) [µg/mL],Compound,MBC (MRSA ATCC 43300) [µg/mL],MBC (S. aureus 144) [µg/mL],MBC (S. aureus AD3; 24 h) [µg/mL],"MBC (S. aureus ATCC 29213; ATCC29213, 24 h) [µg/mL]",MBC (S. aureus AD3) [µg/mL],MBC (S. aureus ATCC 29213; ATCC29213) [µg/mL]
16,16,,8,130 to 132,8,"C=C[C@]1(C)C[C@@H](OC(=O)CNc2nc(Cl)nc3c2cnn3-c2ccc(F)c(F)c2)[C@]2(C)[C@H](C)CC[C@]3(CCC(=O)[C@H]32)[C@@H](C)[C@@H]1O [Compound 22b, 22-[(6-Chloro-1-(3,4-difluorophenyl)-1H-pyrazolo[3,4-d]pyrimidine-4-yl)amino]-22-deoxypleuromutilin]",> 64,> 64,> 64,> 64,,
> 64,> 64,> 64,> 64,117 to 119,,"C=C[C@]1(C)C[C@@H](OC(=O)CNc2nc(Cl)nc3c2cnn3-c2cccc(Cl)c2)[C@]2(C)[C@H](C)CC[C@]3(CCC(=O)[C@H]32)[C@@H](C)[C@@H]1O [Compound 24b, 22-[(6-Chloro-1-(3-chlorophenyl)-1H-pyrazolo[3,4-d]pyrimidine-4-yl)amino]-22-deoxypleuromutilin]",,,,,,
> 64,> 64,> 64,> 64,107 to 111,,"C=C[C@]1(C)C[C@@H](OC(=O)CNc2nc(Cl)nc3c2cnn3-c2ccc(Cl)cc2)[C@]2(C)[C@H](C)CC[C@]3(CCC(=O)[C@H]32)[C@@H](C)[C@@H]1O [Compound 25b, 22-[(6-Chloro-1-(4-chlorophenyl)-1H-pyrazolo[3,4-d]pyrimidine-4-yl)amino]-22-deoxypleuromutilin]",,,,,,
> 64,> 64,> 64,> 64,131 to 135,,"C=C[C@]1(C)C[C@@H](OC(=O)CNc2nc(Cl)nc3c2cnn3-c2cccc([N+](=O)[O-])c2)[C@]2(C)[C@H](C)CC[C@]3(CCC(=O)[C@H]32)[C@@H](C)[C@@H]1O [Compound 27b, 22-[(6-Chloro-1-(3-nitrophenyl)-1H-pyrazolo[3,4-d]pyrimidine-4-yl)amino]-22-deoxypleuromutilin]",,,,,,
> 64,> 64,> 64,> 64,137 to 139,,"C=C[C@]1(C)C[C@@H](OC(=O)CSc2ccc(Nc3nc(Cl)nc4c3cnn4-c3cccc([N+](=O)[O-])c3)cc2)[C@]2(C)[C@H](C)CC[C@]3(CCC(=O)[C@H]32)[C@@H](C)[C@@H]1O [Compound 27c, 22-[4-(6-Chloro-1-(3-nitrophenyl)-1H-pyrazolo[3,4-d]pyrimidine-4-yl)amino-Phenylsulfanyl]-22-deoxypleuromutilin]",,,,,,
32,32,32,32,123 to 125,,"C=C[C@]1(C)C[C@@H](OC(=O)CNc2nc(Cl)nc3c2cnn3-c2ccc3ccccc3c2)[C@]2(C)[C@H](C)CC[C@]3(CCC(=O)[C@H]32)[C@@H](C)[C@@H]1O [Compound 28b, 22-[(6-Chloro-1-(naphthalen-2-yl)-1H-pyrazolo[3,4-d]pyrimidine-4-yl)amino]-22-deoxypleuromutilin]",> 64,> 64,,,> 64,> 64

# Reference: paper PMC10180054, “Design, Synthesis and Biological Evaluation of Novel Pleuromutilin Derivatives Containing 6-Chloro-1-R-1H-pyrazolo[3,4-d]pyrimidine-4-amino Side Chain” (Molecules, 2023)
